Assays:
[1] = molecular target: T1, Tsg101 UEV domain (Homo sapiens, UniProt Q99816); assay: NMR / LC-MS binding of compound to Tsg101 UEV domain
T1 construct: Tsg101 UEV domain (residues 2-145) was encoded in a pET-28b vector; His6-TEV site (N, cleaved yes); made in house; host or cells: E. coli Rosetta 2 (DE3) pLysS
T1 sequence (Q99816 2-145): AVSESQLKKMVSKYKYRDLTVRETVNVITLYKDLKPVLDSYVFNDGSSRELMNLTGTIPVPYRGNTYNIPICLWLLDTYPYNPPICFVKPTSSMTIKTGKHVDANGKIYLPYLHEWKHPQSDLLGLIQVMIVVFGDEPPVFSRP
Experimental: N16 (20 mM solution, DMSO) was added to Tsg101 UEV domain in a 10:1 ratio (N16 excess).
For binding studies using NMR spectroscopy, the following complexes were made: Tsg101 UEV-N16, UEV-PTAP, UEV-Ub, UEV-N16-PTAP, and UEV-N16-Ub, all in Tsg101 NMR buffer: 20 mM potassium phosphate, 50 mM NaCl, pH 5.8, with UEV concentration of 200 μM.

[2] = test system: Gag-Tsg101 co-localization on the plasma membrane; assay: Gag-Tsg101 co-localization by fluorescence microscopy, Pearson's coefficient; type: cell-based
Experimental: FIG. 19A-F. N16 (50 μM) prevents co-localization of Gag and Tsg101 on the plasma membrane. A-E) Fluorescence microscopy images of cells that co-express Tsg101-Myc alone or GagWT-GFP and Tsg101-Myc. Cells grown on coverslips were co-transfected with DNA encoding Tsg101-Myc (A) or Tsg101-Myc and GagWT-GFP (B, D and E) or GagP7L-GFP (C) and treated with F15 (D) or N16 (E). After 24 hr the coverslips were processed for microscopy with Tsg101-Myc detected with anti-Myc antibody and Texas Red secondary antibody as described in Materials & Methods. A) Tsg101-Myc in cells treated with DMSO carrier (top) or N16 (bottom). B-E), Top panels, show signal from Gag-GFP; middle panels, images showing Tsg101-Myc signal; bottom panels, merged images showing signals from Gag-GFP and Tsg101-Myc. Boxes frame a region of the plasma membrane. F) Pearson's coefficient of correlation values determined for the images shown. Error bars indicate the highest values obtained for similar samples. n=6.
FIG. 26A-D. N16 binds covalently to C73 in the Tsg101 UEV domain. A) Activation of N16 to reactive sulfenamide. N16 (i) is converted to intermediates sulfenic acid (ii) and sulfenamide (iii) through acid catalysis to yield a covalently attached N16-Tsg101 UEV complex (iv). B) HNCACB Cβ regions for residues C73, L74, 186 and C87 of Tsg101 without (−) and with (+) N16. C) Examination by fluorescence microscopy of cells co-expressing GagWT-GFP and Tsg101WT-Myc, Tsg101C73A-Myc or Tsg101C87A-Myc in the absence and presence of 50 μM N16. n=3 D) Pearson's coefficient of correlation values.
Hela cells grown on cover slips were transfected with pCMV-Gag-EGFP alone or together with pLLEXP1-hTsg101-myc. Cells were fixed in 4% formaldehyde (Sigma) and permeabilized in 0.1% Triton X-100. Tsg101 was detected in the samples by indirect immunofluorescence using anti-myc Mab and Texas Red anti-mouse IgG. Nuclei were stained with Hoechst. Images were captured on an inverted fluorescence/differential-interference contrast (dic) Zeiss Axiovert 200M deconvolving fluorescence microscope operated by AxioVision Version 4.5 (Zeiss) software and deconvolved by using the constrained iterative method (AxioVision). Protein co-localization was assessed in 40 or more cells by determination of Pearson's coefficient of correlation using Image J software and regarded as significant when a value of 0.6 or higher (equivalent to a 95% level of confidence for that number of cells) was observed (Manders, E. M. M., et al. (1993)).

| Structure (SMILES) | residue bound in Tsg101 UEV (NMR and fluorescence perturbances) [1] | reduction of intensity of Gag-Tsg101 co-localization signal [2] [fold] | time to complete formation of N16 UEV complex ([1]; 10:1 N16 excess, chemical shift perturbations) [h] | co-localization of Gag and Tsg101C73A-myc ([2]; 50 μM N16) | co-localization of Gag and Tsg101C87A-myc ([2]; 50 μM N16) |
| --- | --- | --- | --- | --- | --- |
| COc1ccc2nc([S@@+]([O-])Cc3ncc(C)c(OC)c3C)[nH]c2c1 [F15, esomeprazole] | bind to residue C73 | ~2 | – | – | – |
| COc1ccc2[nH]c([S+]([O-])Cc3ncc(C)c(OC)c3C)nc2n1 (stereo not shown) [N16, tenatoprazole] | bind to residue C73 | ~2 | 2 | failed to prevent co-localization | effectively eliminated co-localization |

From patent publication US12059413B2, “Methods of inhibiting viruses using compositions targeting TSG101-ubiquitin interaction” (The Research Foundation for the State University of New York, priority 2016, dated 2024)
